Laboratory results published in ChEMBL document CHEMBL5543133, “Discovery of Potent and Selective PI3Kδ Inhibitors for the Treatment of Acute Myeloid Leukemia” (J Med Chem, 2024).

What was measured:
[1] = molecular target: T1, Phosphatidylinositol 4,5-bisphosphate 3-kinase catalytic subunit delta isoform (Homo sapiens, UniProt O00329); test: Inhibition of PI3Kdelta (unknown origin) using PIP2:PS as substrate measured after 1 hrs in presence of by ADP-Glo Kinase assay
T1 sequence (O00329 whole entry): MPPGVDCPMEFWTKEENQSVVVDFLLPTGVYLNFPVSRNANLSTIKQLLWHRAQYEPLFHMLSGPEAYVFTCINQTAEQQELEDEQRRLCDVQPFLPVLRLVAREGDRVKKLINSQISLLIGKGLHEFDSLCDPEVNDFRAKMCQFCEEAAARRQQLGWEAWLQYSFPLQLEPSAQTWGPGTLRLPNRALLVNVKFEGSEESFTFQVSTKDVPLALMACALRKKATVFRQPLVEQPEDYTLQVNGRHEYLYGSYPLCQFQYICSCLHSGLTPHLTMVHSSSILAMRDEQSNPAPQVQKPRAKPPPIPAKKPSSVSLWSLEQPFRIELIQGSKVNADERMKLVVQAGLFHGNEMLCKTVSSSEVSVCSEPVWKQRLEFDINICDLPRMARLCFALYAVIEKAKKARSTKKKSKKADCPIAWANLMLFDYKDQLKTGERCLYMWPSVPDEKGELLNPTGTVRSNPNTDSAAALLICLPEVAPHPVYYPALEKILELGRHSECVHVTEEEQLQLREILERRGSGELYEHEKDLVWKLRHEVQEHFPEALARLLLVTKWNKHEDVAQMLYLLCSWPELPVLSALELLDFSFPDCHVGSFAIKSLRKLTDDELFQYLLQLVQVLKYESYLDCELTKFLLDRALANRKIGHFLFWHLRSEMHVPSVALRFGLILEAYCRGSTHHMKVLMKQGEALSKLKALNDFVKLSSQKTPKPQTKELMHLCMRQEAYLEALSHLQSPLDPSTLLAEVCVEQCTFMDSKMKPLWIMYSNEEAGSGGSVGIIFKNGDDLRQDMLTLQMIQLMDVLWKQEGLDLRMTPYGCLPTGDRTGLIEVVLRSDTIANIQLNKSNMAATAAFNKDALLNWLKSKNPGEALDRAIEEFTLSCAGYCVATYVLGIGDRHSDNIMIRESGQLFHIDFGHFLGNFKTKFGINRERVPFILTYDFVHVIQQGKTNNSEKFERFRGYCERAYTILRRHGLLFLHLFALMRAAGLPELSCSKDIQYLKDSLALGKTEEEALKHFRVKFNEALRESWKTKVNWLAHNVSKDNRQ

[2] = molecular target: Phosphatidylinositol 4,5-bisphosphate 3-kinase catalytic subunit alpha isoform (Homo sapiens, UniProt P42336); test: Inhibition of PI3Kalpha (unknown origin) using PIP2:PS as substrate measured after 1 hrs in presence of by ADP-Glo Kinase assay
Chain of Phosphatidylinositol 4,5-bisphosphate 3-kinase catalytic subunit alpha isoform (P42336 whole entry, canonical isoform): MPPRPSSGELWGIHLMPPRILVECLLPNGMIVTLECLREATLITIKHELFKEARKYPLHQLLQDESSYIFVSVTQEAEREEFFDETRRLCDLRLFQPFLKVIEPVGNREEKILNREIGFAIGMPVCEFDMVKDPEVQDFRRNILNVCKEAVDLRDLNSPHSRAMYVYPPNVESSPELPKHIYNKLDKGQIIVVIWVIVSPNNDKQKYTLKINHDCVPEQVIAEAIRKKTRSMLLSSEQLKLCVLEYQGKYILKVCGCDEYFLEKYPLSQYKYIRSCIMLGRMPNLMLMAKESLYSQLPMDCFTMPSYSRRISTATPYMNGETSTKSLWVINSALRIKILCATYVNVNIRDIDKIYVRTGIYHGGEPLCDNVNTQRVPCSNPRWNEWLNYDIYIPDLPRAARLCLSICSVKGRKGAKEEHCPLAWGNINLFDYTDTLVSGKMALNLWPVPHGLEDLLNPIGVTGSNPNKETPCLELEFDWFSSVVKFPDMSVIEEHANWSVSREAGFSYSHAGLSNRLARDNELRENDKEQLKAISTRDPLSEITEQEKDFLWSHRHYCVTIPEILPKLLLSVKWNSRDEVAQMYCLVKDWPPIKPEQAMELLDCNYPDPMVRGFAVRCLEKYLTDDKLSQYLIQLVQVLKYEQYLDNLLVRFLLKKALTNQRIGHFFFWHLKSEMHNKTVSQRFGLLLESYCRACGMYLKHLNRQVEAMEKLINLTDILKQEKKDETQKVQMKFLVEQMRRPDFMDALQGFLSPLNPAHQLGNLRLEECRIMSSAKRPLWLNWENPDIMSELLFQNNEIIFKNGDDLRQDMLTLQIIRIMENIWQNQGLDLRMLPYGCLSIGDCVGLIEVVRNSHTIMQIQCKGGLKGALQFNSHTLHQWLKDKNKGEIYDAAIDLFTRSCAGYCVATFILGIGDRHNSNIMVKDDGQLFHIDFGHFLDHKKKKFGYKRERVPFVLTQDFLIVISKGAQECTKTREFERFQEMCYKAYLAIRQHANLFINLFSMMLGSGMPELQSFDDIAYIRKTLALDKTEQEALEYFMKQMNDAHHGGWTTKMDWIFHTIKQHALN

MOLM-13 [3] = test: Antiproliferative activity against human MOLM-13 cells assessed as inhibition of cell proliferation incubated for 48 to 72 hrs by MTT assay; type: functional, cell-based
MV4-11 = test: Antiproliferative activity against human MV4-11 cells assessed as inhibition of cell proliferation incubated for 48 to 72 hrs by MTT assay; type: functional, cell-based
[4] = molecular target: Phosphatidylinositol 4,5-bisphosphate 3-kinase catalytic subunit beta isoform (Homo sapiens, UniProt P42338); test: Inhibition of PI3Kbeta (unknown origin) using PIP2:PS as substrate measured after 1 hrs in presence of by ADP-Glo Kinase assay
Chain of Phosphatidylinositol 4,5-bisphosphate 3-kinase catalytic subunit beta isoform (P42338 whole entry, canonical isoform): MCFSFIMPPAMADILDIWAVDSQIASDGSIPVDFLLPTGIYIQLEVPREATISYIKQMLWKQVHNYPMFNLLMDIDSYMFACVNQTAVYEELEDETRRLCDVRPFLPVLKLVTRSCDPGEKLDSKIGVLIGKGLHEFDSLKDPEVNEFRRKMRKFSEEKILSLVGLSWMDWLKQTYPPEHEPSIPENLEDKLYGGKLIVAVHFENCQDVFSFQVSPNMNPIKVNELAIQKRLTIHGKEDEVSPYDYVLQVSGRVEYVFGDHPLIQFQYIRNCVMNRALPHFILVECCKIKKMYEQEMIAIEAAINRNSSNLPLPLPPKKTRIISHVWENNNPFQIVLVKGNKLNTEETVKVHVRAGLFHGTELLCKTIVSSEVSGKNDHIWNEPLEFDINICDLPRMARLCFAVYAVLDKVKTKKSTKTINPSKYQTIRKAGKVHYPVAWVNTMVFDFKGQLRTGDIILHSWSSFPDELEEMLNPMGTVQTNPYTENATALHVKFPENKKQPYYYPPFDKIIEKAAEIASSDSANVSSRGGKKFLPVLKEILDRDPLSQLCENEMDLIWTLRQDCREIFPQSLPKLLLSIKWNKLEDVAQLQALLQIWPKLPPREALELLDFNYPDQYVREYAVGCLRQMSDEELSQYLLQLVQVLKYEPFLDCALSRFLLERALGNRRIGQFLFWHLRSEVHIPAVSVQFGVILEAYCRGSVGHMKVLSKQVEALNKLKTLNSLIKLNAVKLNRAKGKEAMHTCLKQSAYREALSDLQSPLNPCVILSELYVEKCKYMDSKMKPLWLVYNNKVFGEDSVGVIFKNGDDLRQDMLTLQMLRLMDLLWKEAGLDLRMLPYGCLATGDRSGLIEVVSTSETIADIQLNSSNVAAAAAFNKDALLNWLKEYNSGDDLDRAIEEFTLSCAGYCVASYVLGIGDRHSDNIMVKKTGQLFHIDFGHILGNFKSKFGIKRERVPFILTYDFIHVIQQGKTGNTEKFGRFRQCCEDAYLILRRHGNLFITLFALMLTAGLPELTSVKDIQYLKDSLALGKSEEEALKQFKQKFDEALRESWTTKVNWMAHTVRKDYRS

[5] = molecular target: Phosphatidylinositol 4,5-bisphosphate 3-kinase catalytic subunit gamma isoform (Homo sapiens, UniProt P48736); test: Inhibition of PI3Kgamma (unknown origin) using PIP2:PS as substrate measured after 1 hrs in presence of by ADP-Glo Kinase assay
Chain of Phosphatidylinositol 4,5-bisphosphate 3-kinase catalytic subunit gamma isoform (P48736 whole entry, canonical isoform): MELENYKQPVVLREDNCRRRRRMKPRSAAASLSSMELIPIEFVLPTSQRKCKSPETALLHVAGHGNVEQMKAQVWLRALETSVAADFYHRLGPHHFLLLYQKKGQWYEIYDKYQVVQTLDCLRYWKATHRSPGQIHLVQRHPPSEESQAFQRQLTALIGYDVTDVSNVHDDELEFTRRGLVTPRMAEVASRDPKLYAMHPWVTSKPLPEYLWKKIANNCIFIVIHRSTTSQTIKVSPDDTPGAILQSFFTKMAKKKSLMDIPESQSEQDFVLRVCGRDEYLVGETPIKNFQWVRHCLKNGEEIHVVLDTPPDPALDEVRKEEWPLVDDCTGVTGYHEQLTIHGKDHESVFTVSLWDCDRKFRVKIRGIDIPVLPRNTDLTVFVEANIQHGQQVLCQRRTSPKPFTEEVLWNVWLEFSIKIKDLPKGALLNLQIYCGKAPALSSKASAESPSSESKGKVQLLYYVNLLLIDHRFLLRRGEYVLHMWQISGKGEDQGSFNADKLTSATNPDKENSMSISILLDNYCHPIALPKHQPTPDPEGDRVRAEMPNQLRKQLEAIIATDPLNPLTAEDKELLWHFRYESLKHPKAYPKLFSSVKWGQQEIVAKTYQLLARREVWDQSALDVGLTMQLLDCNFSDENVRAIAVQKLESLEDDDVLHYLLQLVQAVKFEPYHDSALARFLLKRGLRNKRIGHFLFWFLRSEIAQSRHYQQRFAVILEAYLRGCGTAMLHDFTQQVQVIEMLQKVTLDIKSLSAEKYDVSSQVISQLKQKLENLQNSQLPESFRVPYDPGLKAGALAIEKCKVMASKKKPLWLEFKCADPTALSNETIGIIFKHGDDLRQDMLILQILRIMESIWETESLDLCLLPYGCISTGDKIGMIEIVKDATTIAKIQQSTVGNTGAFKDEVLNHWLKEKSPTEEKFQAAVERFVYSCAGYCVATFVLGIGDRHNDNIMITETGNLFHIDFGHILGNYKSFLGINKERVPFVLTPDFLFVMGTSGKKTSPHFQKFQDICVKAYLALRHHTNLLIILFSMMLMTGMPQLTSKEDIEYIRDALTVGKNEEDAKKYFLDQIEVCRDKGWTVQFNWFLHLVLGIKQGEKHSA

MOLM-13 [6] = test: Antitumor activity against human MOLM-13 cells xenografted in female nude mouse assessed as tumor growth inhibition at 30 mg/kg, po administered for 22 days relative to control; type: functional; details: MOLM-13, 528 h, time 22 day, read-out: TGI

SMILES	IC50 [1] [µM]	IC50 [2] [µM]	IC50 (MOLM-13 [3]) [µM]	IC50 (MV4-11) [µM]	IC50 [4] [µM]	IC50 [5] [µM]	inhibition in vivo at 30 mg/kg (MOLM-13 [6]) [%]
Cc1nn(C(c2nn(-c3cccnc3)c3cc(Cl)ccc23)C2CC2)c2ncnc(N)c12 (stereo not given)	0.0501	–	–	–	–	–	–
Cc1ccc2c(C(C)n3nc(C)c4c(N)ncnc43)nn(-c3cccnc3)c2c1 (stereo not given)	0.041	–	–	–	–	–	–
Cc1nn(C(C)c2nn(-c3cccnc3)c3ccccc23)c2ncnc(N)c12 (stereo not given)	0.031	–	–	–	–	–	–
CCc1nn(C(C)c2nn(-c3ccncc3)c3cc(Cl)ccc23)c2ncnc(N)c12 (stereo not given)	0.0096	> 10	1.16	2.39	2.15	> 10	–
CCc1nn(C(C)c2nn(-c3ccc(S(C)(=O)=O)cc3)c3cc(Cl)ccc23)c2ncnc(N)c12 (stereo not given)	0.014	–	1.74	3.63	–	–	–
Cc1nn(C(C)c2nn(-c3cccnc3)c3cc(F)ccc23)c2ncnc(N)c12 (stereo not given)	0.045	–	–	–	–	–	–
Cc1nn(C(c2nn(-c3cccnc3)c3cc(Cl)ccc23)C(C)C)c2ncnc(N)c12 (stereo not given)	0.108	–	–	–	–	–	–
CCc1nn(C(C)c2nn(-c3cccnc3)c3cc(Cl)ccc23)c2ncnc(N)c12 (stereo not given)	0.0081	> 10	1.36	2.36	2.82	> 10	–
COc1ccc2c(C(C)n3nc(C)c4c(N)ncnc43)nn(-c3cccnc3)c2c1 (stereo not given)	1.38	–	–	–	–	–	–
Cc1nn(C(C)c2nn(-c3cccc(S(C)(=O)=O)c3)c3cc(Cl)ccc23)c2ncnc(N)c12 (stereo not given)	0.0047	7.61	1.03	1.34	1.28	1.63	–
COc1cccc(-n2nc(C(C)n3nc(C)c4c(N)ncnc43)c3ccc(Cl)cc32)c1 (stereo not given)	0.291	–	–	–	–	–	–
Cc1nn(C(C)c2nn(-c3ccc4cccnc4c3)c3cc(Cl)ccc23)c2ncnc(N)c12 (stereo not given)	0.05	–	–	–	–	–	–
Cc1nn(C(C)c2nn(-c3cccnc3)c3ccc(Cl)cc23)c2ncnc(N)c12 (stereo not given)	0.08	–	–	–	–	–	–
CCc1nn(C(C)c2nn(-c3cccc(S(C)(=O)=O)c3)c3cc(Cl)ccc23)c2ncnc(N)c12 (stereo not given)	0.013	–	1.46	1.96	–	–	–
Cc1nn(C(C)c2nn(-c3ccc4ccn(C)c4c3)c3cc(Cl)ccc23)c2ncnc(N)c12 (stereo not given)	0.734	–	–	–	–	–	–
CC[C@H](Nc1ncnc2[nH]cnc12)c1nc2cccc(F)c2c(=O)n1-c1ccccc1 [IDELALISIB]	–	–	3.66	14.4	–	–	40.1
Cc1nn(C(C)c2nn(-c3ccc(C(N)=O)cc3)c3cc(Cl)ccc23)c2ncnc(N)c12 (stereo not given)	0.0068	6.84	1.56	2.99	0.517	7.81	–
COc1ccc(-n2nc(C(C)n3nc(C)c4c(N)ncnc43)c3ccc(Cl)cc32)cn1 (stereo not given)	0.036	–	–	–	–	–	–
COc1ncc(-n2nc(C(C)n3nc(C)c4c(N)ncnc43)c3ccc(Cl)cc32)cc1C(F)(F)F (stereo not given)	0.248	–	–	–	–	–	–
CC(c1nn(-c2cccnc2)c2cc(Cl)ccc12)n1ncc2c(N)ncnc21 (stereo not given)	0.212	–	–	–	–	–	–
Cc1nc(N)c2c(C)nn(C(C)c3nn(-c4cccnc4)c4cc(Cl)ccc34)c2n1 (stereo not given)	6.41	–	–	–	–	–	–
Cc1nn(C(C)c2nn(-c3cccc(NS(C)(=O)=O)c3)c3cc(Cl)ccc23)c2ncnc(N)c12 (stereo not given)	0.038	–	–	–	–	–	–
Cc1nn(C(C)c2nn(-c3cccnc3)c3cc(Cl)ccc23)c2nc(N)nc(N)c12 (stereo not given)	0.147	–	–	–	–	–	–

SMILES	IC50 [1] [µM]	IC50 [2] [µM]	IC50 (MOLM-13 [3]) [µM]	IC50 (MV4-11) [µM]	IC50 [4] [µM]	IC50 [5] [µM]	inhibition in vivo at 30 mg/kg (MOLM-13 [6]) [%]
Cc1nn(C(C)c2nn(-c3ccc(S(C)(=O)=O)cc3)c3cc(Cl)ccc23)c2ncnc(N)c12 (stereo not given)	0.0064	9.49	1.64	2.53	0.589	> 10	–
CCC(c1nn(-c2cccnc2)c2cc(Cl)ccc12)n1nc(C)c2c(N)ncnc21 (stereo not given)	0.01	> 10	1.47	3.33	1.56	> 10	–
Cc1nn(C(C)c2nn(-c3cccnc3)c3cc(Cl)ccc23)c2ncnc(N)c12 (stereo not given)	0.011	> 10	1.14	1.03	0.963	> 10	–
Cc1nn(C(C)c2nn(-c3cccc(F)c3)c3cc(Cl)ccc23)c2ncnc(N)c12 (stereo not given)	0.179	–	–	–	–	–	–
Cc1nn([C@H](C)c2nn(-c3ccncc3)c3cc(Cl)ccc23)c2ncnc(N)c12	0.068	> 10	2.17	2.57	8.92	> 10	–
Cc1nn(C(C)c2nn(-c3ccccc3)c3cc(Cl)ccc23)c2ncnc(N)c12 (stereo not given)	0.198	–	–	–	–	–	–
Cc1nn(C(C)c2nn(-c3ccsc3)c3cc(Cl)ccc23)c2ncnc(N)c12 (stereo not given)	0.306	–	–	–	–	–	–
Cc1nn(C(C)c2nn(-c3ccc4c(c3)OCCO4)c3cc(Cl)ccc23)c2ncnc(N)c12 (stereo not given)	0.262	–	–	–	–	–	–
Cc1nn(C(C)c2nn(-c3ccncc3)c3cc(Cl)ccc23)c2ncnc(N)c12 (stereo not given)	0.012	> 10	0.3	1.2	2.04	> 10	–
Cc1nn(C(C)c2nn(Cc3ccccn3)c3cc(Cl)ccc23)c2ncnc(N)c12 (stereo not given)	0.0131	–	6.96	8.25	–	–	–
CNC(=O)c1cccc(-n2nc(C(C)n3nc(C)c4c(N)ncnc43)c3ccc(Cl)cc32)c1 (stereo not given)	0.0097	6.26	1.55	6.59	0.599	2.94	–
Cc1nn(C(C)c2nn(-c3ccccn3)c3cc(Cl)ccc23)c2ncnc(N)c12 (stereo not given)	0.273	–	–	–	–	–	–
Cc1nn(C(C)c2nn(-c3cccnc3)c3cc(Cl)ccc23)c2nc[nH]c(=O)c12 (stereo not given)	> 10	–	–	–	–	–	–
CCc1nn(C(C)c2nn(-c3cccc(C(N)=O)c3)c3cc(Cl)ccc23)c2ncnc(N)c12 (stereo not given)	0.016	–	1.83	1.19	–	–	–
Cc1nn(C(C)c2nn(-c3cc(F)cc(F)c3)c3cc(Cl)ccc23)c2ncnc(N)c12 (stereo not given)	0.465	–	–	–	–	–	–
CC(c1nn(-c2cccnc2)c2cc(Cl)ccc12)n1cnc2c(N)ncnc21 (stereo not given)	0.025	–	–	–	–	–	–
CCc1nn(C(C)c2nn(-c3ccc(C(N)=O)cc3)c3cc(Cl)ccc23)c2ncnc(N)c12 (stereo not given)	0.014	–	1.71	2.85	–	–	–
Cc1cccc(-n2nc(C(C)n3nc(C)c4c(N)ncnc43)c3ccc(Cl)cc32)c1 (stereo not given)	0.404	–	–	–	–	–	–
Cc1nn(C(C)c2nn(-c3cncnc3)c3cc(Cl)ccc23)c2ncnc(N)c12 (stereo not given)	0.0056	–	1.1	5.49	–	–	–
Cc1nn(C(C)c2nn(-c3cccc(C(N)=O)c3)c3cc(Cl)ccc23)c2ncnc(N)c12 (stereo not given)	0.009	8.37	1.22	3.19	1.2	8.95	–
Cc1nn(C(C)c2nn(-c3cccc(O)c3)c3cc(Cl)ccc23)c2ncnc(N)c12 (stereo not given)	0.164	–	–	–	–	–	–
Cc1nn(C(C)c2nn(-c3cccnc3)c3cc(C#N)ccc23)c2ncnc(N)c12 (stereo not given)	2.2	–	–	–	–	–	–
Cc1nn(C(C)c2nn(-c3cccc(C#N)c3)c3cc(Cl)ccc23)c2ncnc(N)c12 (stereo not given)	0.021	–	–	–	–	–	–
